Series [1] concerns Plasmodium berghei KBG 173. The series is described as follows: animal or person. The class given is in vivo, young ICR/HA Swiss mice. Particulars: for minimal effective dose: Plasmodium berghei, in Mus musculus; for suppressive activity in words: Rane mouse test; for ΔMST / Activity in words / Toxicity in words: 5 mice; for Activity in words / Toxicity in words: Rane, 20-640 mg/kg. The source says:
Blood Schizonticidal Test (Mouse), University of Miami, Rane (suppressive)
This system is based on comparisons of responses to test compounds by Plasmodium berghei KBG 173 malaria in mice as expressed in mean survival times and the mean survival times of untreated controls. Thus, compounds noted as active produce increases in the survival times of the treated animals that are significant when compared with the survival times of untreated controls. Since an established disease is less sensitive to treatment than a disease in the early stages of development, treatment is withheld until the parasitemia is relatively high in order to insure a more reliable assay of activity and the selection of appropriate compounds for intensive preclinical studies.
Utilizing young ICR/HA Swiss mice and a standard inoculum of Plasmodium berghei KBG 173, it is possible to produce a uniform disease fatal to 100% of untreated animals within 6 to 8 days with a mean survival time of 6.2 days. Test animals weigh from 18 to 22 grams but weight variations in any given experimental or control group are confined to 2 to 3 grams. All animals in any given test are approximately of the same age. Animals on test are housed in metal-topped plastic cages, given a standard laboratory diet and water ad libitum.
Test animals receive an intraperitoneal injection of 0.5 ml of 1:100 dilution of heparinized heart's blood with a minimum of 90% parasitized cells (4×10^7 cells), drawn from donor mice infected one week earlier with Plasmodium berghei. The donor strain is maintained by weekly passages in separate groups of mice inoculated with a 0.5 ml of 1:500 dilution of heparinized heart's blood.
Test compounds are administered after dissolution or suspension in peanut oil. A single dose is given subcutaneously 72 hours after the mice are infected with Plasmodium berghei. At this time a 10-15 percent parasitemia has developed; the disease is well established but has not produced sufficient debility to alter the response of the host to toxic effects of the drug on test. Since treatment is withheld for three days to permit the infection to become well established and death occurs in untreated controls within 6 to 8 days, it is believed that this system presents a candidate compound with the maximum challenge. In order to check factors such as changes in the infectivity of Plasmodium berghei or in the susceptibility of the host or to detect technical errors, a group of infected animals treated with pyrimethamine at dose levels producing definite increases in survival time is included as a positive control in every experiment.
In each experiment test compounds are administered in graded doses. […] However, if an active drug is toxic for the host, its toxicity may become a limiting factor; continued increases in dose levels also increase the toxic effects and may result in the diminution of survival times. Deaths prior to the sixth day, when untreated controls begin to die, are regarded as non-parasitic and become the basis for the interpretation that the drug is toxic. Treated animals are kept under observation for 60 days. Survivors at the end of this period of time are considered as cured.
An increase of 100% in mean survival time is considered the minimum effective response for a candidate compound. In calculating mean survival time, toxic deaths and 60 day survivors are not included.

Series [2] relates to Plasmodium cynomolgi (strain B). Put plainly: Radical Curative Test in Rhesus Monkeys, SEATO Medical Research Laboratory. In kind it is in vivo, Indian rhesus monkeys. Particulars: for Radical Curative Activity, Cures (C): Table 1, Seato Rhesus; for Cures (C): Table 8, Seato. How it is done:
Radical Curative Test in Rhesus Monkeys, SEATO Medical Research Laboratory, Bangkok,
This test is designed to evaluate the tissue schizonticidal (radical curative) activity of test compounds. Well-conditioned Indian rhesus monkeys of either sex weighing 2-4 Kg are utilized. Plasmodium cynomolgi (strain B) sporozoites are prepared by grinding heavily infected Anopheles dirus salivary glands in 1:1 monkey serum-saline vehicle.
Monkeys are infected by I.V. injection of 10^6 freshly isolated P. cynomolgi sporozoites on day 0. A rapidly rising parasitemia develops after a 7 to 9 day prepatient period, and administration of the test drug is initiated when the rising parasite count exceeds 5000 per mm^3 (typically day 10-12). Test drugs are administered orally (by nasogastric intubation) once daily for 7 consecutive days in aqueous solution or, if insoluble, in suspension in 0.3% methylcellulose solution. Chloroquine diphosphate (3.1 mg of base/kg orally per day) is always administered concurrently with the test drug for 7 days to eliminate blood schizonts. Thus any tissue schizonticidal activity of the test drug will always be apparent even if it lacks blood schizonticidal activity.
A vehicle control monkey and a positive drug control (primaquine) monkey are included in each group of inoculated monkeys.
The effect of the test drug is determined by counting blood parasites. Parasite counts are made daily through day 20, and every two days thereafter. Initially a clearance of blood parasites is observed due to the blood schizonticidal action of chloroquine. […] If there is no relapse within 20 days of the initial clearance of parasitemia, the monkey is splenectomized and its parasitemia followed for an additional 30 days. If there is no relapse within this period, the experiment is terminated and the monkey is considered "cured". Alternately, in some experiments, negative parasitemia was followed for 100 days without prior splenectomy. It has been determined that the splenectomy and non-splenectomy methods yield virtually identical results.
Primaquine diphosphate cures over 90% of monkeys in this test system when administered at a dose of 1.3 mg/kg of salt per day for 7 days ([…]) in combination with chloroquine.

The test system of a further series is methemoglobin. In kind it is in vivo, Dog.
Series [3] is described as follows: Acute toxicity in the rat by oral or intraperitoneal administration. The settings on record: Rat.
Another series deals with P. berghei yoelli. Put plainly: Causal prophylactic activity against sporozoite induced P. berghei yoelli in the mouse. Particulars: subcutaneous. The class given is in vivo.
Series [4] concerns Chesson strain of P. vivax. The series is described as follows: Antimalarial activity against (trophozoite-induced) infections of the Chesson strain of P. vivax in the Aotus monkey. The class given is in vivo.
[5] abbreviates: Table 1, P. berghei, Rane Mouse Test, 160 mg/kg.
The mark [6] stands for this setting: P. cynomolgi, 0.316 mg/kg (× 7).
Setting [7] is: oral capsule, days 0-3, 3 mg/kg primaquine base per day or molar equivalent, means differ significantly (p <.05).
Where [8] appears, read: text, listed as 5-(4-fluorophenoxy)-primaquine.
[9] abbreviates: text, listed as 5-(4-fluorophenoxy)primaquine.

Entries after “also recorded” stand apart in the source; their conditions may differ. Where a name gives a salt, the structure may show the parent alone. Read-outs that look alike come from different tables or passages of the source.

Protocol for methemoglobin: ^a Primaquine, Comparative Compound, or Compound X, were administered
orally by capsule for four days on days 0, 1, 2 and 3 at a dose of 3 mg/k
primaquine base per day or the molar equivalent.
^e Total methemoglobin production expressed as mg of MHb/ml of
blood/hr for a total of 2 days after administration of the first dose.
^f Area under the % methemoglobin versus time curve (AUC).

Take `COc1cc(NC(C)CCCN)c2nccc(C)c2c1` (stereo not drawn) [4-methylprimaquine diphosphate, 4-methylprimaquine]: the minimal effective dose in series [1] (read-out: active dose (active only at)) turned out to be 160 mg/kg; in series [1] (curative only at this toxic dose, read-out: curative dose, suppressive test) it was 640 mg/kg. Moreover, the “suppressive activity in words” value in series [1] was “very weak activity at non-toxic dose levels”. In addition, the ΔMST in series [1] (setting [5]) is 9 days; in series [1] (Table 1, P. berghei, Rane Mouse Test, 320 mg/kg), 10 days; in series [1] (Table 4, 160 mg/kg), 9 days; in series [1] (Table 4, 320 mg/kg) it was 10 days. For the same compound, the “radical curative activity compared with primaquine, in words” value in series [2] was “comparable to primaquine and somewhat greater in potentcy; also recorded: slightly more effective than primaquine”. Further, in series [2] (0.316 mg/kg), the “radical curative activity in words” value was “inactive”. Also, the Cures in series [2] (1.0 mg/kg) was determined as 100%. For the same compound, the “Radical Curative Activity, Cures (C)” value in series [2] (setting [6]) was 0/4; in series [2] (P. cynomolgi, 1.0 mg/kg (× 7)) it was 2/2.
In the case of `COc1cc(NC(C)CCCN)c2nc(Cl)cc(C)c2c1Oc1cccc(C(F)(F)F)c1` (stereo not drawn) [Analog 4], the “Cures (C)” value in series [1] (Table 8, number of 5 mice, 160 mg/kg) was 1; in series [2] (P. cynomolgi, 0.1 mg/kg (×7)), 0/1; in series [2] (P. cynomolgi, 0.316 mg/kg (×7)), 1/2; in series [2] (P. cynomolgi, 1.0 mg/kg (×7)), 2/2.
As for `COc1cc(NC(C)CCCN)c2nccc(C)c2c1Oc1cccc(C(F)(F)F)c1.O=C(O)CCC(=O)O` (stereo not drawn) [Comparative Compound, 8-[(4-amino-1-methylbutyl)amino]-6-methoxy-4-methyl-5-(3-trifluoromethylphenoxy)quinoline succinate], the ΔMST was 6 days in series [1] (Table 4, 5 mg/kg); 4 days in series [1] (Table 4, 10 mg/kg); 10 days in series [1] (Table 4, 20 mg/kg). In the series with methemoglobin (Table 7, equimolar doses), the “increase of peak methemoglobin level versus Compound X” value stood at 56%. The “peak level of methemoglobin” value in the series on methemoglobin (Table 7, equimolar doses) is 25%. Besides, the “Peak % MHb” value with methemoglobin (setting [7]) is 25.3 ± 8.30%. The “Slope of MHb Formation” value with methemoglobin (setting [7]) was determined as 0.55 ± 0.28. In addition, the “Time of Peak MHb” value in the series on methemoglobin (setting [7]) was 9.00 ± 1.73 days. Further, the “MHb Disappearance Half-Time” value with methemoglobin (oral capsule, days 0-3, 3 mg/kg primaquine base per day or molar equivalent, no difference in the means) stood at 9.14 ± 2.42 days. For the same compound, the “MHb Production as AUC Corrected for Baseline” value in the series with methemoglobin (total methemoglobin production, oral capsule, days 0-3, 3 mg/kg primaquine base per day or molar equivalent, means differ significantly (p <.05)) is given as 14,566 ± 5,475 mg of MHb/ml of blood/hr. In addition, the “LD50 (95% Confidence Limit)” value in series [3] (female, I.P.) is reported as 54 (42-71) mg/kg (Salt); in series [3] (female, oral) it was 401 (368-447) mg/kg (Salt); in series [3] (male, I.P.), 86 (65-109) mg/kg (Salt). Also, the Cures in the series with P. berghei yoelli (2.5 mg/kg of salt) is reported as 6/15; with P. berghei yoelli (10 mg/kg of salt), 8/20; with P. berghei yoelli (40 mg/kg of salt) it was 13/15; in the series with P. berghei yoelli (160 mg/kg of salt), 5/5; in series [2] (Table 2, P. cynomolgi, Rhesus, 0.0316 mg/kg × 7 of salt) it was 0/2; in series [2] (Table 2, P. cynomolgi, Rhesus, 0.10 mg/kg × 7 of salt), 0/2. For the same compound, the Cures in series [2] (Table 2, P. cynomolgi, Rhesus, 0.316 mg/kg × 7 of salt) is given as 2/2; in series [2] (Table 2, P. cynomolgi, Rhesus, 1.0 mg/kg × 7 of salt), 2/2; in series [4] (1 mg/kg × 3 of base), 1/3; in series [4] (2 mg/kg × 3 of base), 5/5; in series [4] (4 mg/kg × 3 of base), 4/4; in series [4] (16 mg/kg × 3 of base) it was 3/3. Besides, the “Molar Primaquine Index by Regression Analysis” value in series [2] (Table 2, ratio of molar ED50, relative to primaquine) is 6.8.
In the case of `COc1cc(NC(C)CCCN)c2nc(OCc3ccc(Cl)cc3)cc(C)c2c1Oc1cccc(C(F)(F)F)c1` (stereo not drawn) [Analog 3], in series [1] (Table 8, P. berghei), the Activity in words result is “Inactive” and the Toxicity in words entry is “non-toxic”.
For `COc1cc(NC(C)CCCN)c2nc(Oc3ccc(Cl)cc3)cc(C)c2c1Oc1cccc(C(F)(F)F)c1` (stereo not drawn) [Analog 2] the same measures were “Inactive” and “non-toxic”.
As for `COc1cc(NC(C)CCCN)c2ncccc2c1Oc1ccc(F)cc1` (stereo not drawn) [5-(4-Fluorophenoxy)primaquine citrate, 5-(4-fluorophenoxy)-primaquine], the ΔMST in series [1] (Table 1, P. berghei, Rane Mouse Test, 80 mg/kg) was determined as 7.0 days; in series [1] (setting [5]) it was 9 days. Further, the “suppressive activity in words” value in series [1] (setting [8]) is “active (and non-toxic) in mice at the high dose levels of 320 and 640 mg/kg”; in series [1] (setting [9]), “not an effective suppressive drug”. The “Radical Curative Activity, Cures (C)” value in series [2] (setting [6]) was 0/2; in series [2] (P. cynomolgi, 1.0 mg/kg (× 7)), 1/3; in series [2] (P. cynomolgi, 3.16 mg/kg (× 7)) it was 1/1. Also, the figures for the “radical curative activity compared with primaquine, in words” value in series [2] (setting [8]) and in series [2] (setting [9]) were “no more active than primaquine in the Rhesus model as a radical curative drug” and “not significantly better than that of primaquine”, respectively.
Consider `COc1cc(NC(C)CCCN)c2nc(O)cc(C)c2c1Oc1cccc(C(F)(F)F)c1` (stereo not drawn) [Analog 1], for which, in series [1] (Table 8, P. berghei), the Activity in words entry is “Inactive” and the Toxicity in words result was “non-toxic”.

The values are drawn from patent US4617394A, “4-methyl-5-(unsubstituted and substituted phenoxy)-2,6-dimethoxy-8-(aminoalkylamino) quinolines” (priority 1985, dated 1986).
